According to patent US7368572B2, “Acetylene derivatives as inhibitors of histone deacetylase” (Pharmacyclics, Inc., priority 2003, dated 2008):
pKi: −log10 of the molar value. Counter-ions that a name gives are not always drawn.

Target: HDAC-1 (Homo sapiens, UniProt Q13547)
Assay: Inhibition of HDAC in vitro (fluorogenic acetyl-Gly-Ala-(N-acetyl-Lys)-AMC / trypsin assay)
Type: biochemical
Conditions: HDAC-1 200 pM, 30 min preincubation, pH 7.4; inhibition constants obtained with BatchKi
Experimental: The HDAC inhibitory activity of the compounds of this invention in vitro was determined as follows.
Measurements were performed in a reaction volume of 100 μL using 96-well assay plates. HDAC-1 (200 pM final concentration) in reaction buffer (50 mM HEPES, 100 mM KCl, 0.001% Tween-20, 5% DMSO, pH 7.4) was mixed with inhibitor at various concentrations and allowed to incubate for 30 min, after which trypsin and acetyl-Gly-Ala-(N-acetyl-Lys)-AMC were added to final concentrations of 50 nM and 25 μM, respectively, to initiate the reaction. Negative control reactions were performed in the absence of inhibitor in replicates of eight.
The reactions were monitored in a fluorescence plate reader. After a 30 min lag time, the fluorescence was measured over a 30 min time frame using an excitation wavelength of 355 nm and a detection wavelength of 460 nm. The increase in fluorescence with time was used as the measure of the reaction rate. Inhibition constants were obtained using the program BatchKi (Kuzmic et al. Anal. Biochem. 286, 45-50, (2000)).

Sequence of HDAC-1 (Q13547 whole entry, species assumed): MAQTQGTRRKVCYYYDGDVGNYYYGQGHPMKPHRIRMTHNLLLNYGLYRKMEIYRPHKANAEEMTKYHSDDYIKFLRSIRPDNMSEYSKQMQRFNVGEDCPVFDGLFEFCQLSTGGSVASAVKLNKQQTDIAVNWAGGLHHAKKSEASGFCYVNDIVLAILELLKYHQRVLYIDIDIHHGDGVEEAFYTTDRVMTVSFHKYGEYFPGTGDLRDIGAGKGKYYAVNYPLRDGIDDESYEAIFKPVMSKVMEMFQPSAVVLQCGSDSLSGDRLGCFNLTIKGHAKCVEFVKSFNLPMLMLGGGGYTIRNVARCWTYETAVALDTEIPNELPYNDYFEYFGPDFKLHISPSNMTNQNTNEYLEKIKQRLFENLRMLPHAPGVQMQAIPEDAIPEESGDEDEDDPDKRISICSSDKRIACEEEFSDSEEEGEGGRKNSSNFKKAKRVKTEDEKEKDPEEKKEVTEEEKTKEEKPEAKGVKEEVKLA

SMILES: CN(C)Cc1c(C(=O)NCC#Cc2ccc(C(=O)NO)cc2)oc2ccccc12 [Compound 22, Table I, N-hydroxy-4-[3-(3-N,N-dimethylaminomethylbenzofiuran-2-ylcarbonylamino)prop-1-ynyl]-benzamide hydrochloride]
- pKi: 7.66
